Source: patent publication US8952055B2 (priority 2008, dated 2015)
pEC50: −log10 of the molar value. Like-named read-outs stand apart in the source and are kept apart here.

Key:
[1] = tested on: influenza viruses (A/PR8/34/H1N1); details: for pEC50: read-out: EC50 Antiviral effect (50% effective concentration), viral infection-preventing effect
[2] = tested on: influenza viruses (A/PR8/34/H1N1); experiment: Hemagglutination assay with chicken erythrocytes; assay type: cell-based, influenza virus; details: final concentrations 0 to 16 μmol/l, FIG. 3
[3] = tested on: canine kidney cultured cells (MDCK); details: read-out: CC50 Cytotoxicity (50% cytotoxic concentration); Table 3
[4] = tested on: influenza viruses (A/PR8/34/H1N1); details: for pEC50: read-out: EC50 Antiviral effect (50% effective concentration), viral infectivity-inhibiting effect
[5] = tested on: influenza viruses (A/PR8/34/H1N1); experiment: microbe, parasite or virus in culture; details: H1N1|PR8, MDCK, read-out: EC50 Antiviral effect (50% effective concentration), viral infectivity-inhibiting effect
[6] = tested on: influenza viruses (A/PR8/34/H1N1); experiment: microbe, parasite or virus in culture; details: H1N1|PR8, MDCK, read-out: EC50 Antiviral effect (50% effective concentration), viral infection-preventing effect

SMILES | SI Selectivity (Selective Index = CC50/EC50) ([1]; Table 3, viral infection-preventing effect) | pEC50 [1] | pEC50 ([1]; Table 5, Example 3, comparison with zanamivir and oseltamivir phosphate) | suppression of agglutination of the erythrocytes [2] | CC50 [3] [µM] | SI Selectivity (Selective Index = CC50/EC50) ([4]; Table 4, viral infectivity-inhibiting effect) | pEC50 ([4]; Table 4, sample incubated with A/PR8/34/H1N1 for 30 minutes before application to MDCK cells) | pEC50 ([4]; Table 6, Example 3, comparison with zanamivir and oseltamivir phosphate) | pEC50 [5] | pEC50 [6]
O=C(O[C@@H]1Cc2c(O)cc(O)cc2O[C@@H]1c1cc(O)c(O)c(O)c1)c1cc(O)c(O)c(O)c1 [EGCG, epigallocatechin gallate] | 2.91 | 4.02 | 4.02 | not observed | 276 | 703 | 6.41 | 6.41 |  | 
CCOC(=O)C1=C[C@@H](OC(CC)CC)[C@H](NC(C)=O)[C@@H](N)C1 [oseltamivir phosphate] |  |  |  |  |  |  |  |  | 4.25 | 4.23
CC(=O)N[C@H]1[C@H]([C@H](O)[C@H](O)CO)OC(C(=O)O)=C[C@@H]1N=C(N)N [zanamivir] |  |  |  |  |  |  |  |  | 5.20 | 4.42
